# Results taken from patent US9458132B2, “Therapeutic compounds and compositions and their use as PKM2 modulators” (AGIOS PHARMACEUTICALS, INC., priority 2012, dated 2016).
# Columns and labels:
# [1] = molecular target: PKR R510Q (Homo sapiens, UniProt P30613, R510Q); assay: PKR mutant assay, PKR R510Q AC50; format: biochemical; details: mutant PKR R510Q enzyme
# Method: (§1) • PKR or PKR mutant enzyme solution was diluted in assay buffer. • 2 μL of test compound was added into wells first, and then 180 μL reaction mix was added. • Reactions mixture with test compound was assembled except for ADP, and plates were stored for 60 minutes at room temperature. • 20 uL ADP was added to start reaction at room temperature and reaction progress was measured as changes in absorbance at 340 nm wavelength at room temperature.
# Test Compound Preparation: • Test compound stock was made at 100x concentration in 100% DMSO (10 mM) • 1 to 3 dilutions were made for 11 points (i.e. 50 μl of first concentration added to 100 μl 100% DMSO to yield 3.33 mM, 50 μl of this added to 100 μl DMSO to yield 1.11 mM, and so forth) • 1 to 100 dilution into assay (2 μl in 200 μl) yielded starting concentration of 100 μM, decreasing 3 fold for 11 points • Assay Buffer: 100 mM KCl, 50 mM Tris 7.5, 5 mM MgCl2, 1 mM DTT, 0.03% BSA • Reaction Mixture: PKR mutant enzyme: 80-400 ng/well; ADP: 0.22-1.65 mM; PEP: 0.1-0.5 mM; NADH:180 uM; LDH: 0.5 units (Sigma#59023); DTT: 1 mM; BSA: 0.03%. […]
# [2] = molecular target: PKR R532W (Homo sapiens, UniProt P30613, R532W); assay: PKR mutant assay, PKR R532W AC50; format: biochemical; details: mutant PKR R532W enzyme
# Sequence of PKR R532W (P30613 whole entry R532W): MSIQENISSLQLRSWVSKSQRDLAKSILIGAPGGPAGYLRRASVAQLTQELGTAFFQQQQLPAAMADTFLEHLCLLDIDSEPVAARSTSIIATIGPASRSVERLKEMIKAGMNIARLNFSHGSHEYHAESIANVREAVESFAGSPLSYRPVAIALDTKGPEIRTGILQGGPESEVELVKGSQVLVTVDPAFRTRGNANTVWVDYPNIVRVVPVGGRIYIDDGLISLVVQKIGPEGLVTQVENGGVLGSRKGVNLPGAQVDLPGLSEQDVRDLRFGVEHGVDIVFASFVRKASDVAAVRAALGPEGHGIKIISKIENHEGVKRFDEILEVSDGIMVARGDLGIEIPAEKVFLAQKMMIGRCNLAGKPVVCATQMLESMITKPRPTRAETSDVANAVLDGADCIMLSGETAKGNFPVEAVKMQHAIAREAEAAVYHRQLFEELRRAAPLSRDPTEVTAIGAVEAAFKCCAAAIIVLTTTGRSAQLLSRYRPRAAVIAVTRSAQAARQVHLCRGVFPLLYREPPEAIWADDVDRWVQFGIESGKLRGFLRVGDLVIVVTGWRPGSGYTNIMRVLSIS
# Method: as §1
# (§2) Test Compound Preparation: • Test compound stock was made at 100x concentration in 100% DMSO (10 mM) • 1 to 3 dilutions were made for 11 points (i.e. 50 μl of first concentration added to 100 μl 100% DMSO to yield 3.33 mM, 50 μl of this added to 100 μl DMSO to yield 1.11 mM, and so forth) • 1 to 100 dilution into assay (2 μl in 200 μl) yielded starting concentration of 100 μM, decreasing 3 fold for 11 points • Assay Buffer: 100 mM KCl, 50 mM Tris 7.5, 5 mM MgCl2, 1 mM DTT, 0.03% BSA • Reaction Mixture: PKR mutant enzyme: 80-400 ng/well; ADP: 0.22-1.65 mM; PEP: 0.1-0.5 mM; NADH:180 uM; LDH: 0.5 units (Sigma#59023); DTT: 1 mM; BSA: 0.03%.
# (§3) A compound described herein was diluted with DMSO and tested at 1 μM concentration. The enzyme was diluted in 1× Buffer: (100 mM KCl, 50 mM Tris 7.5, 5 mM MgCl2, 1 mM DTT, 0.03% BSA). 2 μL of compound solution was first added into wells, and then 180 μL of enzyme solution was added. Assays were assembled except for ADP, and plates were stored for 60 minutes at RT. 20 μL ADP was added to start the assay and assay output was evaluated using OD340 at SpectraMax. The assay was run at room temperature. • Final concentration: PKR R532W (100 ng/well), Tris pH 7.5 (50 mM), KCl (100 mM), MgCl2 (5 mM), ADP (0.36 mM), PEP (0.1 mM), NADH (180 μM), LDH (0.5 units, Sigma 59023), DTT (1 mM) and BSA (0.03%).
# [3] = molecular target: T1, PKR WT (Homo sapiens, UniProt P30613); assay: PKR WT enzymatic assay AC50; format: biochemical; details: wild type PKR
# T1 sequence (P30613 whole entry): as the sequence (P30613 whole entry R532W) above, with W532R counted along it
# Method: as §1, §2
# as §3, with “wt” for “R532W”, “(0.48” for “(0.36”, “(0.15” for “(0.1”
# [4] = molecular target: T1, PKR WT; assay: PKR WT cell based assay AC50; details: wild type PKR
# Sequence of PKR R510Q (P30613 whole entry R510Q): as the sequence (P30613 whole entry R532W) above, with R510Q, W532R counted along it
Compound,AC50 [1] [nM],AC50 [2] [nM],AC50 [3] [nM],AC50 [4] [nM]
"Cc1cc(F)ccc1C1(O)CN(C(=O)c2ccc(NS(=O)(=O)c3cccc4cccnc34)cc2)C1 [Compound 12, N-(4-(3-(4-fluoro-2-methylphenyl)-3-hydroxyazetidine-1-carbonyl)phenyl)quinoline-8-sulfonamide]",101 to 1000,< 100,< 100,101 to 1000
"Cc1ccccc1C1(O)CN(C(=O)c2ccc(NS(=O)(=O)c3cccc4cccnc34)cc2)C1 [Compound 15, N-(4-(3-hydroxy-3-(o-tolyl)azetidine-1-carbonyl)phenyl)quinoline-8-sulfonamide]",101 to 1000,< 100,< 100,101 to 1000
"CCCCC1(O)CN(C(=O)c2ccc(NS(=O)(=O)c3cccc4cccnc34)cc2)C1 [Compound 16, N-(4-(3-butyl-3-hydroxyazetidine-1-carbonyl)phenyl)quinoline-8-sulfonamide]",101 to 1000,101 to 1000,< 100,101 to 1000
"Cc1ncccc1C1(O)CN(C(=O)c2ccc(NS(=O)(=O)c3cccc4cccnc34)cc2)C1 [Compound 19, N-(4-(3-hydroxy-3-(2-methylpyridin-3-yl)azetidine-1-carbonyl)phenyl)quinoline-8-sulfonamide]",101 to 1000,< 100,101 to 1000,101 to 1000
"COc1ncccc1C1(O)CN(C(=O)c2ccc(NS(=O)(=O)c3cccc4cccnc34)cc2)C1 [Compound 20, N-(4-(3-hydroxy-3-(2-methoxypyridin-3-yl)azetidine-1-carbonyl)phenyl)quinoline-8-sulfonamide]",101 to 1000,101 to 1000,101 to 1000,101 to 1000
"O=C(c1ccc(NS(=O)(=O)c2cccc3c2OCCO3)cc1)N1CC(O)(Cc2ccccc2)C1 [Compound 53, N-(4-(3-benzyl-3-hydroxyazetidine-1-carbonyl)phenyl)-2,3-dihydrobenzo[b][1,4]dioxine-5-sulfonamide]",< 100,< 100,< 100,< 100
COc1cccc(C2(O)CN(C(=O)c3ccc(NS(=O)(=O)c4cccc5cccnc45)cc3)C2)c1 [Compound 61],101 to 1000,< 100,< 100,< 100
